Species: Rattus norvegicus
Assay: DrugMatrix - Regimen: Daily Repeat
Assay type: toxicity, organism-based, Sprague-Dawley
Parameters: regimen Daily Repeat, gender Male, age 6-8 weeks
Settings: in vivo, po, route oral GAVAGE, […]; for ABSOLUTE BASOPHIL / ABSOLUTE EOSINOPHIL / ABSOLUTE LYMPHOCYTE / ABSOLUTE MONOCYTE / ABSOLUTE SEGMENTED NEUTROPHIL / BASOPHIL / EOSINOPHIL / ERYTHROCYTE COUNT / HEMATOCRIT / HEMOGLOBIN / LEUKOCYTE COUNT / LYMPHOCYTE / MEAN CORPUSCULAR HEMOGLOBIN / MEAN CORPUSCULAR HEMOGLOBIN CONCENTRATION / MEAN CORPUSCULAR VOLUME / MONOCYTE / NEUTROPHIL / NUCLEATED RED BLOOD CELLS / PLATELET COUNT: tissue Blood; for ALANINE AMINOTRANSFERASE / ALBUMIN / ALKALINE PHOSPHATASE / ASPARTATE AMINOTRANSFERASE / BLOOD UREA NITROGEN / CARBON DIOXIDE / CHLORIDE / CHOLESTEROL / CREATINE PHOSPHOKINASE / CREATININE / GLUCOSE / LACTATE DEHYDROGENASE / LIPASE / POTASSIUM / SODIUM / TOTAL BILIRUBIN / TOTAL PROTEIN / URIC ACID: tissue Plasma
[1] = 0 mg/kg, 72 h, dose level Control, time 3 day
[2] = 0 mg/kg, 120 h, dose level Control, time 5 day
[3] = 3 mg/kg, 72 h, dose level Low, time 3 day
[4] = 3 mg/kg, 120 h, dose level Low, time 5 day

CCc1ccc(CCOc2ccc(CC3SC(=O)NC3=O)cc2)nc1 (configuration not stated) [PIOGLITAZONE]
ABSOLUTE BASOPHIL [1]: 0 CELLS/uL | ABSOLUTE EOSINOPHIL [1]: 22.83 CELLS/uL | ABSOLUTE LYMPHOCYTE [1]: 11213.33 CELLS/uL | ABSOLUTE MONOCYTE [1]: 169.83 CELLS/uL | ABSOLUTE SEGMENTED NEUTROPHIL [1]: 960.67 CELLS/uL | BASOPHIL [1]: 0% | EOSINOPHIL [1]: 0.17% | ERYTHROCYTE COUNT [1]: 5.34 x10E6/uL | HEMATOCRIT [1]: 33.62% | HEMOGLOBIN [1]: 13.17 G/DL | LEUKOCYTE COUNT [1]: 12.37 x10E3/uL | LYMPHOCYTE [1]: 90.33% | MEAN CORPUSCULAR HEMOGLOBIN [1]: 24.65 pg | MEAN CORPUSCULAR HEMOGLOBIN CONCENTRATION [1]: 39.18 G/DL | MEAN CORPUSCULAR VOLUME [1]: 62.95 fL | MONOCYTE [1]: 1.5% | NEUTROPHIL [1]: 8% | NUCLEATED RED BLOOD CELLS [1]: 0 /100WBC | ALANINE AMINOTRANSFERASE [1]: 56.67 u/L | ALBUMIN [1]: 4.55 G/DL | ALKALINE PHOSPHATASE [1]: 305.17 u/L | ASPARTATE AMINOTRANSFERASE [1]: 96.5 u/L | BLOOD UREA NITROGEN [1]: 13.5 mg/dL | CARBON DIOXIDE [1]: 31 mmol/L | CHLORIDE [1]: 101.67 MEQ/L | CHOLESTEROL [1]: 75.83 mg/dL | CREATINE PHOSPHOKINASE [1]: 345.67 u/L | CREATININE [1]: 0.28 mg/dL | GLUCOSE [1]: 142.5 mg/dL | LACTATE DEHYDROGENASE [1]: 136.67 u/L | LIPASE [1]: 10.17 u/L | POTASSIUM [1]: 5.41 MEQ/L | SODIUM [1]: 146.7 MEQ/L | TOTAL BILIRUBIN [1]: 0.13 mg/dL | TOTAL PROTEIN [1]: 6.65 G/DL | URIC ACID [1]: 0.77 mg/dL | ABSOLUTE BASOPHIL [2]: 0 CELLS/uL | ABSOLUTE EOSINOPHIL [2]: 26.33 CELLS/uL | ABSOLUTE LYMPHOCYTE [2]: 10004.33 CELLS/uL | ABSOLUTE MONOCYTE [2]: 141.33 CELLS/uL | ABSOLUTE SEGMENTED NEUTROPHIL [2]: 1161.33 CELLS/uL | BASOPHIL [2]: 0% | EOSINOPHIL [2]: 0.33% | ERYTHROCYTE COUNT [2]: 5.5 x10E6/uL | HEMATOCRIT [2]: 34.8% | HEMOGLOBIN [2]: 13.17 G/DL | LEUKOCYTE COUNT [2]: 11.33 x10E3/uL | LYMPHOCYTE [2]: 87.83% | MEAN CORPUSCULAR HEMOGLOBIN [2]: 23.95 pg | MEAN CORPUSCULAR HEMOGLOBIN CONCENTRATION [2]: 37.83 G/DL | MEAN CORPUSCULAR VOLUME [2]: 63.28 fL | MONOCYTE [2]: 1.17% | NEUTROPHIL [2]: 10.67% | NUCLEATED RED BLOOD CELLS [2]: 0 /100WBC | PLATELET COUNT [2]: 1035.33 x10E3/uL | ALANINE AMINOTRANSFERASE [2]: 36 u/L | ALBUMIN [2]: 4.63 G/DL | ALKALINE PHOSPHATASE [2]: 266.33 u/L | ASPARTATE AMINOTRANSFERASE [2]: 71.67 u/L | BLOOD UREA NITROGEN [2]: 11.33 mg/dL | CARBON DIOXIDE [2]: 30.17 mmol/L | CHLORIDE [2]: 100.83 MEQ/L | CHOLESTEROL [2]: 70.33 mg/dL | CREATINE PHOSPHOKINASE [2]: 226.17 u/L | CREATININE [2]: 0.27 mg/dL | GLUCOSE [2]: 147.83 mg/dL | LACTATE DEHYDROGENASE [2]: 111.67 u/L | LIPASE [2]: 8 u/L | POTASSIUM [2]: 5.14 MEQ/L | SODIUM [2]: 145.48 MEQ/L | TOTAL BILIRUBIN [2]: 0.1 mg/dL | TOTAL PROTEIN [2]: 6.53 G/DL | URIC ACID [2]: 0.52 mg/dL | ABSOLUTE BASOPHIL [3]: 0 CELLS/uL | ABSOLUTE EOSINOPHIL [3]: 196.67 CELLS/uL | ABSOLUTE LYMPHOCYTE [3]: 13366 CELLS/uL | ABSOLUTE MONOCYTE [3]: 155.33 CELLS/uL | ABSOLUTE SEGMENTED NEUTROPHIL [3]: 1182 CELLS/uL | BASOPHIL [3]: 0% | EOSINOPHIL [3]: 1.33% | ERYTHROCYTE COUNT [3]: 5.51 x10E6/uL | HEMATOCRIT [3]: 35.97% | HEMOGLOBIN [3]: 13.93 G/DL | LEUKOCYTE COUNT [3]: 14.9 x10E3/uL | LYMPHOCYTE [3]: 89.67% | MEAN CORPUSCULAR HEMOGLOBIN [3]: 25.3 pg | MEAN CORPUSCULAR HEMOGLOBIN CONCENTRATION [3]: 38.77 G/DL | MEAN CORPUSCULAR VOLUME [3]: 65.23 fL | MONOCYTE [3]: 1% | NEUTROPHIL [3]: 8% | NUCLEATED RED BLOOD CELLS [3]: 0 /100WBC | PLATELET COUNT [3]: 1174 x10E3/uL | ALANINE AMINOTRANSFERASE [3]: 60.33 u/L | ALBUMIN [3]: 4.03 G/DL | ALKALINE PHOSPHATASE [3]: 427.33 u/L | ASPARTATE AMINOTRANSFERASE [3]: 94.33 u/L | BLOOD UREA NITROGEN [3]: 8.67 mg/dL | CARBON DIOXIDE [3]: 32.67 mmol/L | CHLORIDE [3]: 103.67 MEQ/L | CHOLESTEROL [3]: 64.67 mg/dL | CREATINE PHOSPHOKINASE [3]: 625.67 u/L | CREATININE [3]: 0.22 mg/dL | GLUCOSE [3]: 155.67 mg/dL | LACTATE DEHYDROGENASE [3]: 125.67 u/L | LIPASE [3]: 12.33 u/L | POTASSIUM [3]: 6.21 MEQ/L | SODIUM [3]: 145.77 MEQ/L | TOTAL BILIRUBIN [3]: 0.13 mg/dL | TOTAL PROTEIN [3]: 5.33 G/DL | URIC ACID [3]: 1.63 mg/dL | ABSOLUTE BASOPHIL [4]: 0 CELLS/uL | ABSOLUTE EOSINOPHIL [4]: 37 CELLS/uL | ABSOLUTE LYMPHOCYTE [4]: 11883.67 CELLS/uL | ABSOLUTE MONOCYTE [4]: 95.33 CELLS/uL | ABSOLUTE SEGMENTED NEUTROPHIL [4]: 1150.67 CELLS/uL | BASOPHIL [4]: 0% | EOSINOPHIL [4]: 0.33% | ERYTHROCYTE COUNT [4]: 5.61 x10E6/uL | HEMATOCRIT [4]: 36.33% | HEMOGLOBIN [4]: 14.47 G/DL | LEUKOCYTE COUNT [4]: 13.17 x10E3/uL | LYMPHOCYTE [4]: 90.33% | MEAN CORPUSCULAR HEMOGLOBIN [4]: 25.8 pg | MEAN CORPUSCULAR HEMOGLOBIN CONCENTRATION [4]: 39.83 G/DL | MEAN CORPUSCULAR VOLUME [4]: 64.8 fL | MONOCYTE [4]: 0.67% | NEUTROPHIL [4]: 8.67% | NUCLEATED RED BLOOD CELLS [4]: 0 /100WBC | PLATELET COUNT [4]: 1242.33 x10E3/uL | ALANINE AMINOTRANSFERASE [4]: 58.33 u/L | ALBUMIN [4]: 4.03 G/DL | ALKALINE PHOSPHATASE [4]: 346.67 u/L | ASPARTATE AMINOTRANSFERASE [4]: 87.67 u/L | BLOOD UREA NITROGEN [4]: 13 mg/dL | CARBON DIOXIDE [4]: 30.67 mmol/L | CHLORIDE [4]: 101 MEQ/L | CHOLESTEROL [4]: 64.67 mg/dL | CREATINE PHOSPHOKINASE [4]: 464 u/L | CREATININE [4]: 0.13 mg/dL | GLUCOSE [4]: 150.33 mg/dL | LACTATE DEHYDROGENASE [4]: 542.33 u/L | LIPASE [4]: 11.33 u/L | POTASSIUM [4]: 6.64 MEQ/L | SODIUM [4]: 142.57 MEQ/L | TOTAL BILIRUBIN [4]: 0.2 mg/dL | TOTAL PROTEIN [4]: 5.7 G/DL | URIC ACID [4]: 1.57 mg/dL
